From PubChem BioAssay AID588642 (The Scripps Research Institute Molecular Screening Center, 2011)
Active and inactive are the calls of the source.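 Rule for the calls: active = MAPK1 kinase protein level shifted by at least 30% from solvent-only cells, either down or up; inactive = shift in protein level under 30% either way.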

Target: Mitogen-activated protein kinase 1 (Homo sapiens) (UniProt P28482)
Assay: MAPK1 abundance shift in treated cells – cell-based, HCT116 colorectal carcinoma, chemiluminescent western blot, counter-screen for KLF5 inhibitor project, late-stage follow-up (AID 588642)
Details: HCT116 ERK1/2 protein level, 24 h, at 10 µM, stronger effect = higher value

Mitogen-activated protein kinase 1 (Homo sapiens), sequence (P28482 whole entry, looked up): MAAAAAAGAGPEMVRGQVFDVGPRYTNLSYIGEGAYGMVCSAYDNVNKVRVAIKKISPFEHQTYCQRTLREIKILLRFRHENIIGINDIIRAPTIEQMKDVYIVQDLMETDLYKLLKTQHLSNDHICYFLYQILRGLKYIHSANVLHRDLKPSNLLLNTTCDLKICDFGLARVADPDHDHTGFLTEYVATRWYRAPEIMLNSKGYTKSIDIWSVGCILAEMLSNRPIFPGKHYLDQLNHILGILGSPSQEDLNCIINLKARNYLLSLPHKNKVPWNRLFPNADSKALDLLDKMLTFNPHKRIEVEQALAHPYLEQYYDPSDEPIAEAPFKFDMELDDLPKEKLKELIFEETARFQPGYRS

inhibition	Structure (SMILES)
5.48% (inactive)	CN(C(=O)CNC(=O)/C=C/c1cccc(Cl)c1)C1CCS(=O)(=O)C1 (stereo not drawn)
3.03% (inactive)	CN(C(=O)CNC(=O)/C=C/c1cccc(Cl)c1)C1CCS(=O)(=O)CC1
4.62% (inactive)	CN(C(=O)COC(=O)/C=C/c1cccc([N+](=O)[O-])c1)C1CCS(=O)(=O)C1 (stereo not drawn)
